Results: PubChem BioAssay AID624118 (National Center for Advancing Translational Sciences (NCATS), 2012)

Biological target: Cytochrome P450 3A4 (Homo sapiens) (UniProt P08684)
Assay: qHTS Assay for Inhibitors of Bacillus subtilis Sfp phosphopantetheinyl transferase (PPTase): CYP 3A4
Settings: CYP3A4 inhibition, 3 uM, ADME profiling; stronger effect = higher value
Description: The covalent attachment of a phosphopantetheinyl (4'-PP) arm to a variety of synthases and other proteins is a key posttranslational protein modification. The 4'-PP is installed on the proteins post-translationally from coenzyme A (CoA) on a conserved serine residue by action of phosphopantetheinyl transferase (PPTase) enzymes. Phosphopantetheinylation is essential for synthase activity, and removal of the PPTase gene precludes natural product synthesis in microorganisms, or in the case of fatty acid biosynthesis, renders the organism unviable. PPTase enzymes belong to a distinct structural superfamily. Within bacteria, these enzymes are grouped into two classes based upon primary structure, the AcpS-Type and Sfp-Type PPTases.
Sfp-type PPTases, corresponding to an activator of surfactin production in Bacillus subtilis, are responsible for modifying type I polyketide and nonribosomal peptide synthases of prokaryotes. Sfp-type PPTases are responsible for the activation of a variety of pathogen-associated virulence factors. Among these compounds are toxins such as mycolactone from Mycobacterium ulcerans, siderophores such as vibriobactin from Vibrio cholerae or mycobactin from Mycobacterium tuberculosis, as well as the mycolic acids which form the waxy cell wall of Mycobacteria. The biosyntheses of these natural products are considered attractive targets for drug design. […]

Sequence of Cytochrome P450 3A4 (Homo sapiens) (P08684 whole entry, looked up): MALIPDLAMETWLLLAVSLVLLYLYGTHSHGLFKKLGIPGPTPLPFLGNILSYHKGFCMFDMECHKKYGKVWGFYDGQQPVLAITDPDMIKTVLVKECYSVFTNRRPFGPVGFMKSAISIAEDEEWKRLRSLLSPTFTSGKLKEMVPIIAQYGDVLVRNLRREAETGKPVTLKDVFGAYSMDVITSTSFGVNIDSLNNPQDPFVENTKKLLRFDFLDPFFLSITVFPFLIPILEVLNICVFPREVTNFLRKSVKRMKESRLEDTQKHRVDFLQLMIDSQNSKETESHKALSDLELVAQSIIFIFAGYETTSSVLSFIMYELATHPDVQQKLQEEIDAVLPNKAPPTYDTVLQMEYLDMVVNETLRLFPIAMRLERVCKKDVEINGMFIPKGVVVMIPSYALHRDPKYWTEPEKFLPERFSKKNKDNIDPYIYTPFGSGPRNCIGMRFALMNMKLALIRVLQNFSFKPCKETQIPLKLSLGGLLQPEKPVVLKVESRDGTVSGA

- inhibition: 20%
SMILES: COc1ccnc(NC(=S)N2CCN(c3ncc(C(F)(F)F)cc3Cl)CC2)c1
